# In US20130029970A1 (priority 2009, published 2013):
# pEC50, pIC50: −log10 of the molar value.
# Tests used:
# [1] = target: T1, recombinant human cannabinoid receptor CB2 (Homo sapiens, UniProt P34972); assay: Cannabinoid receptor radioligand binding assay, [3H]-CP 55,940 displacement, hCB2
# T1 construct: (cDNA clone) CNR0200000
# Method in brief: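 Membranes from hCB2-transfected cells, prepared by 1000×g then 40,000×g centrifugation, resuspended in 20 mM HEPES pH 7.4, 5 mM MgCl2, 1 mM EDTA, 10% sucrose.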
# human CB2 receptors = target: T2, human CB2 receptors (Homo sapiens, UniProt P34972); assay: cAMP assay in HEK-293 cells, hCB2 agonist; assay type: cell-based; details: inhibition of forskolin-stimulated cAMP, HEK-293 cells; read-out: hCB2 EC50 (cAMP ag)
# T2 construct: (cDNA clone) CNR0200000
# Method in brief: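 HEK-293 cells stably expressing human CB2, suspended at 1,500,000 cells/mL in HBSS with 10 mM HEPES and 0.1% fatty-acid-free BSA, exposed to test compound plus forskolin (90 uM in the 3× compound solution) for 30 min at 37° C.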
# human CB1 (hCB1) = target: T3, human CB1 (hCB1) (Homo sapiens, UniProt P21554); assay: 35S GTPγS binding assay, hCB1 agonist; assay type: biochemical; details: GTPγS agonist, HEK-293 membranes; read-out: hCB1 EC50 (GTPyS ag)
# T3 construct: (cDNA clone) CNR01L000
# human CB2 (hCB2) = target: T4, human CB2 (hCB2) (Homo sapiens, UniProt P34972); assay: 35S GTPγS binding assay, hCB2 agonist; assay type: biochemical; details: GTPγS agonist, HEK-293 membranes; read-out: hCB2 EC50 (GTPyS ag)
# T4 construct: (cDNA clone) CNR0200000
# Method in brief: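 Membranes (5 μg) from cells transfected with hCB2 cDNA in pcDNA3.1+ incubated with SPA beads, 0.1 nM [35S]GTPγS and 20 uM GDP in 50 mM HEPES pH 7.4, 100 mM NaCl, 5 mM MgCl2, 0.001% saponin, ± test compound. Incubation 90 min at room temperature; bound label read by scintillation counting.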
# T3 sequence (P21554 whole entry): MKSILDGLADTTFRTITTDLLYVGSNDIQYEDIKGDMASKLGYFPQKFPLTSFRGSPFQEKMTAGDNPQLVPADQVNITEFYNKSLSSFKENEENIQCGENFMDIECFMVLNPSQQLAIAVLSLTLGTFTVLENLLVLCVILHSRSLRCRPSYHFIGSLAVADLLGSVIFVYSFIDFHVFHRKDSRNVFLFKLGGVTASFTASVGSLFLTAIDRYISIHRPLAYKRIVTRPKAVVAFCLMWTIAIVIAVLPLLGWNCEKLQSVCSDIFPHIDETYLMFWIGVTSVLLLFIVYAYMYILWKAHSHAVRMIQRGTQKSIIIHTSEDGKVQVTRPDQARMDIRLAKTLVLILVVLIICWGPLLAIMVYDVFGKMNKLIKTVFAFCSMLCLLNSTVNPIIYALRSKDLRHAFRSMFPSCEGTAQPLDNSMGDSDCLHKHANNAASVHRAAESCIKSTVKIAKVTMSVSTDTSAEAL
# T4 sequence (P34972 whole entry): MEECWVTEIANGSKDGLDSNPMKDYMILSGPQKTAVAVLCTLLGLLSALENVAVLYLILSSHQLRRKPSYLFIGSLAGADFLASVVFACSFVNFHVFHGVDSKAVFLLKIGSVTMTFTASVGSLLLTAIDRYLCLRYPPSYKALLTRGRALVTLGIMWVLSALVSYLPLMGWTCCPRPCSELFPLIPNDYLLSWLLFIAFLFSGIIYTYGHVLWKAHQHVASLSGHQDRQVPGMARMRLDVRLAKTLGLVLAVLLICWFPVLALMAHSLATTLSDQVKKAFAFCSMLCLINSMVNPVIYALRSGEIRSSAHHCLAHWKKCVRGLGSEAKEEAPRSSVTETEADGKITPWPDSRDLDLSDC
# T2 sequence (P34972 whole entry): as above
# T1 sequence (P34972 whole entry): as above
SMILES,pIC50 [1],pEC50 (human CB2 receptors),pEC50 (human CB1 (hCB1)),pEC50 (human CB2 (hCB2))
"COc1ccc(C(=O)c2cc3cc(C)n(CCN4CCOCC4)c3s2)c(OC)c1 [Compound 120, (2,4-Dimethoxyphenyl)(5-methyl-6-(2-morpholinoethyl)-6H-thieno[2,3-b]pyrrol-2-yl)methanone]",> 7.00,> 7.00,6.00 to 7.00,> 7.00
"COc1ccc(C(=O)c2cc3cc(C)n(CCN4CCCCC4)c3s2)cc1 [Compound 78, (4-Methoxyphenyl)(5-methyl-6-(2-(piperidin-1-yl)ethyl)-6H-thieno[2,3-b]pyrrol-2-yl)methanone]",> 7.00,> 7.00,> 7.00,> 7.00
"COc1ccc(C(=O)c2cc3cc(C)n(S(=O)(=O)N4CCOCC4)c3s2)cc1 [Compound 53, (4-methoxyphenyl)(5-methyl-6-(morpholinosulfonyl)-6H-thieno[2,3-b]pyrrol-2-yl)methanone]",> 7.00,> 7.00,6.00 to 7.00,> 7.00
"COc1ccc(C(=O)c2cc3cc(C)n(S(=O)(=O)CCN4CCOCC4)c3s2)cc1 [Compound 139, (4-methoxyphenyl)(5-methyl-6-(2-morpholinoethylsulfonyl)-6H-thieno[2,3-b]pyrrol-2-yl)methanone]",> 7.00,> 7.00,6.00 to 7.00,> 7.00
"Cc1cc2cc(C(=O)c3cccc(Cl)c3Cl)sc2n1CCc1ccccc1 [Compound 30, (2,3-Dichlorophenyl)(5-methyl-6-phenethyl-6H-thieno[2,3-b]pyrrol-2-yl)methanone]",> 7.00,> 7.00,6.00 to 7.00,> 7.00
"COc1ccc(C(=O)c2cc3cc(C)n(CCN4CCOCC4)c3s2)c(C(F)(F)F)c1 [Compound 119, (4-Methoxy-2-(trifluoromethyl)phenyl)(5-methyl-6-(2-morpholinoethyl)-6H-thieno[2,3-b]pyrrol-2-yl)methanone]",> 7.00,> 7.00,6.00 to 7.00,> 7.00
"COc1ccc(C(=O)c2cc3cc(C)n(CC4CCOCC4)c3s2)cc1 [Compound 62, (4-Methoxyphenyl)(5-methyl-6-((tetrahydro-2H-pyran-4-yl)methyl)-6H-thieno[2,3-b]pyrrol-2-yl)methanone]",> 7.00,> 7.00,6.00 to 7.00,> 7.00
